Source: the supplement of paper PMC10307832

Legend:
Assay in all cases: relative viability (nuclei count vs DMSO), 5 days (fraction); higher = more cells survive
AT9283 + Trametinib = compound: O=C(Nc1c[nH]nc1-c1nc2ccc(CN3CCOCC3)cc2[nH]1)NC1CC1 [AT9283] + CC(=O)Nc1cccc(-n2c(=O)n(C3CC3)c(=O)c3c(Nc4ccc(I)cc4F)n(C)c(=O)c(C)c32)c1 [Trametinib] (partner 0.02 µM)
Outline: (§1)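 One day after seeding in 1536-well plates, lung cancer cell lines were dosed by pin tool. Dosing was either single-drug or a fixed anchor-drug dose plus five library-drug doses (not always all listed) in √10 steps. After 5 days, nuclei were stained in one fix-and-stain step and counted on 4× images, and relative viability is the nuclei count of treated wells over that of vehicle wells, given as the median of duplicate plates.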

AT9283 + Pictilisib = compound: O=C(Nc1c[nH]nc1-c1nc2ccc(CN3CCOCC3)cc2[nH]1)NC1CC1 [AT9283] + CS(=O)(=O)N1CCN(Cc2cc3nc(-c4cccc5[nH]ncc45)nc(N4CCOCC4)c3s2)CC1 [Pictilisib] (partner 1 µM)
Outline: as §1

Erlotinib + Phenformin = compound: C#Cc1cccc(Nc2ncnc3cc(OCCOC)c(OCCOC)cc23)c1 [Erlotinib] + N=C(N)NC(=N)NCCc1ccccc1 [Phenformin] (partner 250 µM)
Outline: as §1

Erlotinib + Crizotinib = compound: C#Cc1cccc(Nc2ncnc3cc(OCCOC)c(OCCOC)cc23)c1 [Erlotinib] + C[C@@H](Oc1cc(-c2cnn(C3CCNCC3)c2)cnc1N)c1c(Cl)ccc(F)c1Cl [Crizotinib] (partner 1 µM)
Outline: as §1

Erlotinib + Lapatinib = compound: C#Cc1cccc(Nc2ncnc3cc(OCCOC)c(OCCOC)cc23)c1 [Erlotinib] + CS(=O)(=O)CCNCc1ccc(-c2ccc3ncnc(Nc4ccc(OCc5cccc(F)c5)c(Cl)c4)c3c2)o1 [Lapatinib] (partner 2 µM)
Outline: as §1

Cell Line | relative viability (AT9283 + Trametinib; first compound 0.003 µM) | relative viability (AT9283 + Trametinib; first compound 0.03 µM) | relative viability (AT9283 + Trametinib; first compound 0.09487 µM) | relative viability (AT9283 + Trametinib; first compound 0.3 µM) | relative viability (AT9283 + Pictilisib; first compound 0.003 µM) | relative viability (AT9283 + Pictilisib; first compound 0.03 µM) | relative viability (AT9283 + Pictilisib; first compound 0.09487 µM) | relative viability (AT9283 + Pictilisib; first compound 0.3 µM) | relative viability (Erlotinib + Phenformin; first compound 0.02 µM) | relative viability (Erlotinib + Phenformin; first compound 0.6325 µM) | relative viability (Erlotinib + Phenformin; first compound 2 µM) | relative viability (Erlotinib + Crizotinib; first compound 0.02 µM) | relative viability (Erlotinib + Crizotinib; first compound 0.2 µM) | relative viability (Erlotinib + Crizotinib; first compound 0.6325 µM) | relative viability (Erlotinib + Crizotinib; first compound 2 µM) | relative viability (Erlotinib + Lapatinib; first compound 0.02 µM) | relative viability (Erlotinib + Lapatinib; first compound 0.2 µM) | relative viability (Erlotinib + Lapatinib; first compound 0.6325 µM) | relative viability (Erlotinib + Lapatinib; first compound 2 µM) | relative viability (Erlotinib + Phenformin; first compound 0.2 µM)
LXF-289 | 0.695 | 0.686 | 0.254 | 0.145 | 0.727 | 0.668 | 0.0746 | 0.0864 | 0.54 | 0.496 | 0.476 | 0.818 | 0.828 | 0.761 | 0.711 | 0.89 | 0.953 | 0.899 | 0.889 | –
NCI-H23 | 0.377 | 0.291 | 0.281 | 0.19 | 0.457 | 0.267 | 0.213 | 0.153 | – | 0.684 | 0.72 | 0.565 | 0.481 | 0.601 | 0.433 | 1.29 | 0.993 | 1.27 | 0.977 | 0.662
NCI-H322M | 0.486 | 0.49 | 0.407 | 0.405 | 0.498 | 0.413 | 0.294 | 0.298 | 0.816 | 0.539 | 0.421 | 0.786 | 0.707 | 0.668 | 0.322 | 0.551 | 0.604 | 0.555 | 0.541 | 0.592
NCI-H358 | 0.144 | 0.105 | 0.081 | 0.0743 | 0.278 | 0.171 | 0.141 | 0.132 | 0.349 | 0.234 | 0.178 | 0.549 | 0.524 | 0.379 | 0.24 | 0.379 | 0.421 | 0.519 | 0.452 | 0.277
NCI-H460 | 0.143 | 0.215 | 0.0758 | 0.0307 | 0.305 | 0.302 | 0.0565 | 0.0907 | 0.524 | 0.541 | 0.466 | 1.08 | 0.763 | 1.26 | 0.74 | 0.918 | 1.1 | 0.999 | 0.959 | 0.512
NCI-H520 | 0.719 | 0.276 | 0.291 | 0.149 | 0.259 | 0.247 | 0.216 | 0.171 | 0.751 | 0.646 | 0.706 | 0.683 | 0.9 | 0.987 | 0.68 | 0.825 | 0.759 | 0.913 | – | 0.525
NCI-H596 | 0.76 | 0.868 | 0.566 | 0.635 | 0.391 | 0.415 | 0.412 | 0.373 | 0.745 | 0.735 | 0.688 | 0.952 | 0.961 | 1.02 | 0.828 | – | 1 | 0.998 | 1.01 | 0.698
NCI-H647 | 0.46 | 0.47 | 0.138 | 0.173 | 0.43 | 0.159 | 0.0749 | 0.085 | 0.586 | 0.632 | 0.353 | 1.2 | 1.09 | 1.26 | 0.811 | 1.24 | 1.11 | 1.09 | 0.942 | 0.476
NCI-H650 | 0.976 | 0.906 | 0.394 | 0.179 | 0.853 | 0.816 | 0.274 | 0.186 | 0.424 | 0.449 | 0.479 | 0.735 | 0.803 | 0.903 | 0.662 | 0.754 | 1.08 | 1.14 | 0.744 | 0.462
NCI-H661 | 0.571 | 0.441 | 0.423 | 0.323 | 0.296 | 0.382 | 0.334 | 0.292 | 0.301 | 0.269 | 0.318 | 1.16 | – | 1.04 | 0.97 | 0.493 | 0.41 | – | 0.473 | 0.264
NCI-H727 | 0.378 | 0.418 | 0.359 | 0.347 | 0.379 | 0.395 | 0.225 | 0.167 | 0.572 | 0.639 | 0.404 | 0.736 | 0.725 | 0.574 | 0.552 | 0.821 | 0.873 | 0.929 | 0.766 | –
NCI-H838 | 0.543 | 0.275 | 0.16 | 0.144 | 0.544 | 0.265 | 0.182 | 0.216 | 0.668 | 0.694 | 0.493 | 0.953 | 0.838 | 0.907 | 0.693 | 1.21 | 0.759 | 1.26 | 0.853 | 0.509
NCI-H1355 | 0.446 | 0.427 | 0.354 | 0.179 | 0.435 | 0.345 | 0.168 | 0.159 | 0.474 | 0.458 | 0.414 | 1.1 | 0.999 | 0.944 | 0.789 | 1.03 | 0.98 | 1.06 | 0.998 | 0.493
